Measured values reported in US8846571B2, “Herbicidal compositions containing benzoylpyrazole compounds” (priority 2008, dated 2014).
Like-named read-outs stand apart in the source and are kept apart here.

Experiments:
[1] = Foliar treatment pot test (Example 1), plant name misprinted as 'days after treatment'; assay type: in vivo; conditions: 4.0-5.0 leaf stage
Description: (§1) When the herbicidal activity in a case where two active ingredients are combined, is larger than the simple sum of the respective herbicidal activities of the two active ingredients (the expected activity), it is called a synergistic effect. The activity expected by the combination of two active ingredients can be calculated as follows (Colby S. R., “Weed”, vol. 15, p. 20-22, 1967). E=α+β−(α×β÷100) where
(§2) Upland field soil was put into a 1/1,000,000 hectare pot, and seeds of various plants were sown. When the respective plants reached predetermined leaf stage, herbicidal compositions in predetermined amounts were diluted with water in an amount corresponding to 300 L/ha and applied for foliar treatment by a small sprayer.
(§3) Further, in accordance with the above Colby's formula, the growth inhibition rate (calculated value) was calculated. In Tables, with respect to the compound Q, Compound Nos. in Table 1 are described, and with respect to other herbicidal compounds, common names are described.

crabgrass = assay: Foliar treatment pot test (Example 1), visual growth inhibition of crabgrass; assay type: in vivo
Description: as §1, §2, §3

various plants = assay: Foliar treatment pot test (Example 1) on various plants; assay type: in vivo; conditions: Setaria, 336 h, fiant foxtail, 4.0-5.0 leaf stage, 14 days after treatment, read-out: Growth inhibition rate (%) of fiant foxtail, Measured value
Description: as §1, §2, §3

prickly sida = assay: Foliar treatment pot test (Example 1), visual growth inhibition of prickly sida; assay type: in vivo, prickly sida (Side spinosa L.); conditions: read-out: Growth inhibition rate (%) Measured value
Description: as §1, §2, §3

velvetleaf = assay: Foliar treatment pot test (Example 1), visual growth inhibition of velvetleaf; assay type: in vivo, velvetleaf (Abutilon theophrasti MEDIC.)
Description: as §1, §2, §3

[2] = 504 h, 21 days after treatment, read-out: Growth inhibition rate (%) Measured value

For `CS(=O)(=O)c1ccc(C(=O)C2C(=O)CCCC2=O)c([N+](=O)[O-])c1` [Mesotrione], the inhibition at 15 g/ha ([1]; 504 h, 21 days after treatment, 15 g/ha, read-out: Growth inhibition rate (%) of days after treatment, Measured value) was 5%.
In the case of `N.O=C(O)CNCP(=O)(O)O` [Glyphosate-ammonium, glyphosate-ammonium], the “Growth inhibition rate (%) Measured value” (crabgrass; crabgrass 5.0-5.5 leaf stage, 21 days after treatment, 100 g/ha) is reported as 10%.
`CCCCCCCCSC(=O)Oc1cc(Cl)nnc1-c1ccccc1` [Pyridate, pyridate, reference compound] showed an inhibition at 100 g/ha ([1]; 504 h, 21 days after treatment, 100 g/ha, read-out: Growth inhibition rate (%) of days after treatment, Measured value) of 0% and an inhibition at 100 g/ha (various plants; 100 g/ha) of 0%.
In the case of `COC(=O)c1sccc1S(=O)(=O)NC(=O)Nc1nc(C)nc(OC)n1` [Thifensulfuron-methyl], the inhibition at 5 g/ha ([1]; 504 h, 21 days after treatment, 5 g/ha, read-out: Growth inhibition rate (%) of days after treatment, Measured value) is reported as 0%.
Work on `CCNc1nc(Cl)nc(NC(C)C)n1` [Atrazine, atrazine] yielded an inhibition at 63 g/ha (prickly sida; 504 h, prickly sida 3.0-3.3 leaf stage, 21 days after treatment, 63 g/ha) of 30%, an inhibition at 125 g/ha (prickly sida; 504 h, prickly sida 3.0-3.3 leaf stage, 21 days after treatment, 125 g/ha) of 45% and an inhibition at 125 g/ha [1, 2] of 0%.
With `CCc1cccc(C)c1N(C(=O)CCl)[C@@H](C)COC` [S-Metolachlor, S-metolachlor] the “Growth inhibition rate (%) of crabgrass, Measured value” (crabgrass; 4.0-5.0 leaf stage, 14 days after treatment, 150 g/ha) was 0%, the “Growth inhibition rate (%) Measured value” (crabgrass; crabgrass 4.0-5.1 leaf stage, 21 days after treatment, 300 g/ha) was 0% and the “Growth inhibition rate (%) Measured value” (crabgrass; crabgrass 5.0-6.0 leaf stage, 14 days after treatment, 800 g/ha) was 0%. For the same molecule, the “Growth inhibition rate (%) Measured value” (velvetleaf; velvetleaf 3.0-3.5 leaf stage, 21 days after treatment, 300 g/ha) was 0%.
`COc1c(Cl)ccc(Cl)c1C(=O)O` [Dicamba, dicamba] gave an inhibition at 200 g/ha ([1]; 336 h, 14 days after treatment, 200 g/ha, read-out: Growth inhibition rate (%) Measured value) of 0%.
For `COC(=O)c1c(Cl)nn(C)c1S(=O)(=O)NC(=O)Nc1nc(OC)cc(OC)n1` [Halofulfuron-methyl], the “Growth inhibition rate (%) of crabgrass, Measured value” (crabgrass; 5.0-5.5 leaf stage, 14 days after treatment, 20 g/ha) was 0%.
Molecule `CCNc1nc(Cl)nc(NC(C)(C)C)n1` [Terbuthylazine, terbuthylazine] has an inhibition at 250 g/ha ([1]; 192 h, 8 days after treatment, 250 g/ha, read-out: Growth inhibition rate (%) Measured value) of 10% and an inhibition at 125 g/ha [1, 2] of 0%.
In the case of `CCOC(=O)OC(C)Oc1c(C(=O)c2ccc(S(C)(=O)=O)c(OCCOC)c2C)cnn1C` (stereo not drawn) [NO. 2], the “Growth inhibition rate (%) Measured value” (velvetleaf; velvetleaf 4.0-4.3 leaf stage, 22 days after treatment, 3.75 g/ha) is reported as 0%.
For `CCOCCN(C(=O)CCl)C(=C(C)C)c1ccccc1` [Pethoxamid, pethoxamid, reference compound], the “Growth inhibition rate (%) Measured value” (crabgrass; crabgrass 4.4-5.0 leaf stage, 13 days after treatment, 200 g/ha) was 0% and the “Growth inhibition rate (%) Measured value” (velvetleaf; velvetleat 3.3-4.2 leaf stage, 13 days after treatment, 200 g/ha) was 0%.
For `CCn1ncc(C(=O)c2ccc(S(C)(=O)=O)c(OCCOC)c2C)c1OC(C)OC(=O)OC` (stereo not drawn) [NO. 4, 1-(1-ethyl-4-(3-(2-methoxyethoxy)-2-methyl-4-(methylsulfonyl)benzoyl)-1H-pyrazol-5-yloxy)ethyl methyl carbonate], the inhibition at 5 g/ha (crabgrass; Digitaria sanguinalis, foliar, 336 h, crabgrass 3.5-4.3 leaf stage, 14 days after treatment, 5 g/ha, read-out: Growth inhibition rate (%) Measured value) was 90%, the inhibition at 15 g/ha (crabgrass; Digitaria sanguinalis, foliar, 552 h, 4.0-5.1 leaf stage, 23 days after treatment, 15 g/ha, read-out: Growth inhibition rate (%) of crabgrass, Measured value) was 85% and the “Growth inhibition rate (%) of velvetleaf, Measured value” (velvetleaf; 3.0-4.0 leaf stage, 14 days after treatment, 15 g/ha) was 80%. It also gave an inhibition at 15 g/ha (velvetleaf; Abutilon theophrasti, foliar, 336 h, 3.0-4.0 leaf stage, 14 days after treatment, 15 g/ha, read-out: Growth inhibition rate (%) of velvetleaf, Measured value) of 73%, an inhibition at 5 g/ha (velvetleaf; Abutilon theophrasti, foliar, 504 h, velvetleaf 3.1-3.4 leaf stage, 21 days after treatment, 5 g/ha, read-out: Growth inhibition rate (%) Measured value) of 94% and an inhibition at 15 g/ha (velvetleaf; Abutilon theophrasti, foliar, 504 h, velvetleaf 3.8-4.4 leaf stage, 21 days after treatment, 15 g/ha, read-out: Growth inhibition rate (%) Measured value) of 75%. It also gave an inhibition at 15 g/ha (velvetleaf; Abutilon theophrasti, foliar, 528 h, velvetleaf 3.3-3.8 leaf stage, 22 days after treatment, 15 g/ha, read-out: Growth inhibition rate (%) Measured value) of 89%, an inhibition at 7 g/ha (velvetleaf; Abutilon theophrasti, foliar, 552 h, 3.0-3.5 leaf stage, 23 days after treatment, 7 g/ha, read-out: Growth inhibition rate (%) of velvetleaf, Measured value) of 75% and an inhibition at 15 g/ha (velvetleaf; Abutilon theophrasti, foliar, 552 h, 3.0 to 3.5 leaf stage, 23 days after treatment, 15 g/ha, read-out: Growth inhibition rate (%) of velvetleaf, Measured value) of 93%. It also gave an inhibition at 15 g/ha (velvetleaf; Abutilon theophrasti, foliar, 576 h, 3.2-4.1 leaf stage, 24 days after treatment, 15 g/ha, read-out: Growth inhibition rate (%) of velvetleaf, Measured value) of 93%, an inhibition at 75 g/ha (prickly sida; 480 h, prickly sida 1.5-2.4 leaf stage, 20 days after treatment, 75 g/ha) of 55% and an inhibition at […] ([1]; 504 h, 21 days after treatment, 3.5 g/ha, read-out: Growth inhibition rate (%) of days after treatment, Measured value) of 40%. It also gave an inhibition at 7 g/ha ([1]; 504 h, 21 days after treatment, 7 g/ha, read-out: Growth inhibition rate (%) of days after treatment, Measured value) of 60% and an inhibition at 7 g/ha (various plants; 7 g/ha) of 75%.
